Assay results: publication PMC11931445, “A Novel Compound QO‐83 Alleviates Acute and Chronic Epileptic Seizures in Rodents by Modulating KV7 Channel Activity” (CNS Neuroscience & Therapeutics, 2025)

Assays:
liver tissue = experiment: Liver toxicity, 28 days gavage; assay type: in vivo, KM mice; conditions: for liver-body weight ratio compared to control: QO-83 20, Flupirtine 20, APAP 200 mg/kg/d
Procedure: Twenty-four KM mice, half male and half female, weighing between 18 and 22 g, were randomly divided into four groups, each consisting of six mice: a control group, an acetaminophen (APAP) group, a flupirtine (FM) group, and a QO-83 group. The treatment lasted for 28 days, and the drug solvent was a 0.8% sodium carboxymethyl cellulose solution. The control group received an equal amount of 0.8% sodium carboxymethyl cellulose solution. A single dose was administered to each group via gavage, and the dosage volume was calculated based on the body weight of the mice. The control group received 0.8% sodium carboxymethyl cellulose solution, the APAP group received acetaminophen at 200 mg/kg/d, the FM group received […] at 20 mg/kg/d, and the QO-83 group received QO-83 at 20 mg/kg/d. After 28 days of administration, the liver was isolated, fixed in 4% paraformaldehyde for at least 24 h, routinely embedded in paraffin, and sectioned into 3–5 μm continuous slices. Hematoxylin-eosin (HE) staining was performed to observe the pathological structure of the tissue. After staining with HE, the tissue was dehydrated using an alcohol gradient, cleared, and mounted for the observation of liver lesions under a light microscope.

L02 cells = experiment: MTT cytotoxicity; assay type: cell-based, human; conditions: 100 μM; 24h and 48h
Procedure: Normal human liver L02 cells were cultured in RPMI-1640 complete medium and maintained in a humidified incubator at 37°C with 5% CO2. Cell status was observed daily, and the medium was changed every 1–2 days. During the experiment, cells in good condition and in the logarithmic growth phase were selected. After digestion and collection, the cells were evenly suspended, and the cell suspension concentration was adjusted to 5×10^4 cells/mL. A volume of 150 μL was inoculated per well in a 96-well plate, leaving the surrounding wells for the addition of sterilized PBS (100 μL per well) to prevent edge effects. The plate was then placed in an incubator for further incubation. After 12 h of culturing to allow cell adhesion, the culture medium was aspirated from the 96-well plate. Based on the control, QO-83 was added at concentrations of 0.1 μM, 0.3 μM, 1 μM, 3 μM, 10 μM, 30 μM, and 100 μM, along with Flupirtine (100 μM) in a concentration gradient of 150 μL per well, with six replicates for each group. The control group served as the normal control. The cultures were incubated for 24 and 48 h, respectively. After this period, the culture medium was removed, and 50 μL of 5 mg/mL MTT solution was added to each well, followed by continued incubation for 4 h. […] Finally, the absorbance was measured using a microplate reader (preheated for at least 15 min) at a wavelength of 490 nm.

[1] = test system: pilocarpine-induced seizures; experiment: Pilocarpine-induced status epilepticus model with EEG; assay type: in vivo, Sprague–Dawley (SD) rats
Text: For animal experiments, we used adult male Sprague–Dawley (SD) rats weighing between 240 and 260 g. Isoflurane anesthesia was used for all operations. Rats were secured in a stereotaxic frame, and the anterior fontanelle was marked 3 mm posteriorly. Additionally, marks were made approximately 3 mm lateral to the midline on both sides to indicate the insertion points for the positive and negative electrodes. A ground electrode was placed subcutaneously in the occipital lobe to eliminate recording noise. Postoperatively, each animal was housed separately in a single cage and provided food and water ad libitum. After a 3‐day adaptation period, electroencephalograms (EEG) were recorded.
The experimental procedure commenced with an intraperitoneal injection of lithium chloride (127 mg/kg). After 24 h, subcutaneous scopolamine methyl nitrate (1 mg/kg) was administered. […] Twenty minutes later, status epilepticus (SE) was induced by administering pilocarpine (100 mg/kg, i.p.). SE was terminated 2 h later by administering 10% chloral hydrate.
The Pilo group, 2 mg/kg XE991 group, and 2 mg/kg XE991 + 1 mg/kg QO‐83 group received an intraperitoneal injection of lithium chloride (127 mg/kg) 24 h prior to testing. Following this, scopolamine methyl nitrate (1 mg/kg) was administered […], and after 10 min, each group was treated with 25% beta‐cyclodextrin, 2 mg/kg XE991, or 2 mg/kg XE991, respectively. After 15 min, 25% beta‐cyclodextrin, 25% beta‐cyclodextrin, or 1 mg/kg QO‐83 was administered. Finally, 25 min later, pilocarpine (100 mg/kg, i.p.) was administered to induce seizures.
Seizure severity was assessed using a standardized scale ranging from 1 to 5, adapted from previous research criteria. Stage 1 encompasses mouth and facial movements, including wet dog shakes. Stage 2 involves head nodding. Stage 3 is characterized by unilateral forelimb clonus. […] Finally, stage 5 manifests as clonus of all limbs accompanied by falling.

KV7.2 = target: T1, KV7.2 (Homo sapiens, UniProt O43526); experiment: Manual patch clamp, KV7 currents; assay type: cell-based; conditions: 20 μM XE991
T1 construct: expressed in transfected cells
Procedure: Pipettes (1–6 MΩ) were filled with a solution of KCl (145 mM), MgCl2 (1 mM), HEPES (10 mM), and EDTA (5 mM). The pH was adjusted to 7.2 with NaOH. Electrophysiological measurements were obtained using an AXON Multiclamp 700 B patch‐clamp amplifier. The bath solution contained NaCl (144 mM), KCl (5 mM), MgCl2 (1 mM), CaCl2 (2 mM), and D‐glucose (10 mM), with the pH adjusted to 7.4 using NaOH. The protocol involved an increase in voltage from −120 mV to 40 mV in increments of 10 mV to evoke a series of KV7 currents (1000 ms per pulse) in the bath solution. For details on cell culture, please see Appendix S1 2.2.1.
Statistical differences between multiple groups (mean ± SEM) were compared using one‐ or two‐way ANOVA. Electrophysiological data were analyzed using SPSS version 21 and OriginPro (version 9.1.0). P Peak inward currents obtained from activation protocols were calculated using the following equation: G = I/(Vm‐EK), where G is conductance, I is peak inward current, Vm is instantaneous membrane potential, and EK is equilibrium potential for the […] channel. Conductance data were normalized using maximum conductance and further fitted to the Boltzmann equation: G=Gmax+Gmin−Gmax/1+expVm−V1/2/k , where G is conductance, V1/2 is midpoint of activation, and k is slope factor. The “Spectrum” module of LabChart was used for data analysis of EEG signals, including the calculation of power density and averaging power spectral density (PSD).
Stable Chinese Hamster Ovary (CHO) cell lines expressing specific Kv7 channel subtypes, including KV7.2 and KV7.2/7.3, were cultured in Minimum Essential Medium (MEM) supplemented with 10% fetal calf serum, 1× nonessential amino acids, […], and […] hygromycin B. Concurrently, KV7.4 and KV7.5 channels were stably expressed in Human Embryonic Kidney 293A (HEK293A) cell lines and nurtured in Dulbecco's Modified Eagle Medium (DMEM) high glucose medium supplemented with 10% fetal bovine serum (FBS), […], and […] hygromycin B.

SMILES | liver tissue pathology (HE staining) (liver tissue; QO-83 20 mg/kg/d, APAP 200 mg/kg/d) | liver-body weight ratio compared to control (liver tissue) | effect on cell viability (MTT) (L02 cells) | effect on EEG power density (0–50 Hz and δ, θ, α, β bands) ([1]; 2 mg/kg XE991, compared to PILO group) | seizure grade versus model group ([1]; 2 mg/kg XE991 alone) | seizure latency ([1]; 2 mg/kg XE991 alone, Pilo model 22.73 ± 6.03 min) [min] | effect on QO-83-induced increase in KV7.2 channel current (KV7.2)
CC(=O)Nc1ccc(O)cc1 [APAP, Acetaminophen] | significant pathological changes | increased significantly | – | – | – | – | –
CCOC(=O)Nc1ccc(NCc2ccc(F)cc2)nc1N [Flupirtine] | – | increased significantly | significantly inhibited cell viability | – | – | – | –
O=C1c2ccccc2C(Cc2ccncc2)(Cc2ccncc2)c2ccccc21 [XE991] | – | – | – | significantly increased the power density | No significant differences | 8.52 ± 4.73 | significantly inhibited the increase in KV7.2 channel current
